SMILES strings stand for the structures.

Assay type in all cases: cell-based
Assay [1] concerns wild type coliforms from cheese plant brine. The assay can be described thus: Coliforms procedure in cheese brine or buffered solution. To be noted: after 4 hours in mozzarella cheese brine.
For assay [2], the system named is yeast cocktail (Raised, Rough and Flat white yeast and a pink yeast). The assay can be described thus: “Yeast” procedure, yeast cocktail. The text has this: In the present example, cultures of various microorganisms native to actual process brines used in cheese manufacture were obtained from a cheese plant. […] Organism cultures included four different types of yeast (three distinct while yeast cultures and a pink yeast), a black mold culture, a coliform culture, a culture of mixed green mold and yeast that were not separated, and a culture that was identified by the cheese plant as heterofermentative lactic acid bacteria, although no actual identification of the strain was carried out.
(§1) “Yeast” Procedure: • 1. Inoculate a separate tube containing 10 ml of Brain Heart Infusion (BHI) broth for each wild type (Raised, Rough and Flat white yeast along with a single pink yeast). Incubate for 5 days at 26° C.+/−2° C. • 2. Assume growth to be 10^7 cfu/ml. Since 4 cultures are being used, combine 2.75 ml of each culture added to 99 ml of cold Butterfield's Phosphate Buffered Water (PBW) to obtain 10^6 cfu/ml of yeast cocktail. • 3. Plate serial dilutions of the culture to get the starting count of the inoculum on Dichloran-Rose Bengal-Chloramphenicol Agar (DRBC). • 4. Add 1 ml of the diluted cocktail to 100 ml of cold test solution. • 5. Determine the population at time 0 and 4 hours. Spread plate serial dilutions to DRBC agar. • 6. Incubate the test solutions at 10° C.+/−2° C. for the duration of the experiment. • 7. Incubate the plates at 20° C.+/−2° C. for 5 days+/−2 hours. • 8. Count representative colonies and multiply by the dilution factor. Note: Each test solution should contain ˜10^4 cfu/ml.
(§2) The brines were treated with different concentrations of octanoic acid and then challenged with a yeast cocktail (which included the pink and 3 different white mold types), the green mold+yeast combination, and coliforms.

The next assay concerns White Yeast. The assay can be described thus: Yeast challenge, white yeast. As for the experimental part:
as §1
(§3) In order to determine if the effect of the additive was repeatable, more challenge tests were run on samples of process brine. […] In this test the solutions were challenged with two distinct yeast (a white and a pink) types and coliforms from the samples sent by the cheese plant.

The test system of another assay is black mold. The assay is described as follows: “Mold” procedure, black mold. Conditions: after 4 hours in blue cheese brine; Table 20; inoculum 2.5 × 10^4 (est). As for the experimental part: (§4) In the present example, cultures of various microorganisms native to actual process brines used in cheese manufacture were obtained from a cheese plant. The cultures of yeast, mold, and coliforms were grown and used to test the efficacy of various antimicrobial additives in blue cheese brines. Organism cultures included four different types of yeast (three distinct while yeast cultures and a pink yeast), a black mold culture, a coliform culture, a culture of mixed green mold and yeast that were not separated, and a culture that was identified by the cheese plant as heterofermentative lactic acid bacteria, although no actual identification of the strain was carried out.
(§5) “Mold” Procedure: • 1. From refrigerated stock mold cultures, take 1 ml from black mold dilution bottle added to 99 ml of cold Butterfield's Phosphate Buffered Water (PBW) to obtain 10^5 cfu/ml. • 2. Take 1 ml from green mold/white yeast mixture dilution bottle added to 99 ml of cold Butterfield's Phosphate Buffered Water (PBW) to obtain 10^6 cfu/ml. • 3. Plate serial dilutions of the cultures to get the starting count of the inoculum on Dichloran-Rose Bengal-Chloramphenicol Agar (DRBC). • 4. Add 1 ml of the diluted mold culture to 100 ml of cold test solution (do separately for each of the two mold cultures). • 5. Determine the population at time 0 and 4 hours. Spread plate serial dilutions to DRBC agar. • 6. Incubate the test solutions at 10° C.+/−2° C. for the duration of the experiment. • 7. Incubate the plates at 20° C.+/−2° C. for 5 days+/−2 hours. • 8. Count representative colonies and multiply by the dilution factor. Note: For black mold, each test solution should contain ˜10^3 cfu/ml. For green mold/white yeast mixture, each test solution should contain ˜10^4 cfu/ml.

The test system of assay [3] is wild type coliforms from cheese plant brine. The assay can be described thus: Coliforms procedure in cheese brine or buffered solution. To be noted: for Coliforms count: Table 21 (sodium octanoate experiment). The procedure:
as §4
Coliforms Procedure: • 1. Inoculate a separate tube containing 10 ml of Brain Heart Infusion (BHI) broth for each wild type coliforms 1 and 2. Incubate for 24+/−2 hours at 35° C.+/−2° C. • 2. Assume growth to be 10^9 cfu/ml. Since two cultures are being used, combine 5.5 ml of each culture added to 99 ml of cold Butterfield's Phosphate Buffered Water (PBW) to obtain 10^8 cfu/ml. • 3. Plate serial ten-fold dilutions of the culture to get the starting count of the inoculum on Violet Red Bile Agar (VRBA). • 4. Add 1 ml of the diluted cocktail to 100 ml of cold test solution. • 5. Determine the population at time 0 and 4 hours by plating serial dilutions to VRBA spread plates. • 6. Incubate the test solutions at 10° C.+/−2° C. for the duration of the experiment. • 7. Incubate the plates at 20° C.+/−2° C. for 72+/−2 hours. • 8. Count representative colonies and multiply by the dilution factor. Note: Each test solution should contain ˜10^8 cfu/ml.
as §2

Assay [4] concerns heterofermentative lactic acid bacteria (not identified). The assay can be described thus: “Lactic Bacteria” procedure in cheese brine. To be noted: after 4 hours in blue cheese brine; Table 20; inoculum 1.2 × 10^7 (est). As for the experimental part: as §4
“Lactic Bacteria” Procedure: • 1. Inoculate a separate tube containing 10 ml of Brain Heart Infusion (BHI) broth for each wild type tactics 1 and 2. Incubate for 72+/−2 hours at 30° C.+/−2° C. • 2. Assume growth to be 10^9 cfu/ml. Since two cultures are being used, combine 5.5 ml of each culture added to 99 ml of cold Butterfield's Phosphate Buffered Water (PBW) to obtain 10^8 cfu/ml. • 3. Plate serial dilutions of the culture to get the starting count of the inoculum on Lactobacilli MRS Agar (MRSA). • 4. Add 1 ml of the diluted cocktail to 100 ml of cold test solution. • 5. Determine the population at time 0 and 4 hours. Plate serial dilutions using MRSA spread plates. • 6. Incubate the test solutions at 10° C.+/−2° C. for the duration of the experiment. • 7. Incubate the plates at 30° C.+/−2° C. for 72+/−2 hours. • 8. Count representative colonies and multiply by the dilution factor. Note: Each test solution should contain ˜10^8 cfu/ml.
In this experiment solutions were challenged with cultures of the black mold, the green mold/yeast combination, and the bacteria thought to be “lactic acid” bacteria. In this experiment, a brine control with no additive was neglected, but the data still indicate the strong effectiveness of the octanoic acid against yeast and mold.

For the next assay, the system named is Pink Yeast. The assay is described as follows: Yeast challenge, pink yeast. The procedure: as §1, §3
The subject of assay [5] is green mold/white yeast mixture. The assay is described as follows: “Mold” procedure, green mold/white yeast mixture. To be noted: for Green Mold + Yeast count: after 4 hours in blue cheese brine, Table 20, inoculum 5.8 × 10^6 (est). As for the experimental part: as §4, §5
Screening tests identified octanoic acid as a promising antimicrobial additive for salt brines. Table 16 gives results of a challenge test run on actual blue cheese and mozzarella process brine samples sent from a cheese plant. The brines were treated with different concentrations of octanoic acid and then challenged with a yeast cocktail (which included the pink and 3 different white mold types), the green mold+yeast combination, and coliforms. […] The plate counts listed parenthetically as (est) were too numerous to count and were estimated.

Setting [6] is: Table 17, (est) = too numerous to count, estimated.
Setting [7] is: after 4 hours at 10° C. in blue cheese brine, Table 16.
[8] abbreviates: after 4 hours in mozzarella cheese brine, Table 17.
Setting [9] is: after 4 hours in blue cheese brine, Table 18.
[10] abbreviates: after 4 hours in blue cheese brine, Table 21 (sodium octanoate experiment).
The mark [11] stands for this setting: after 4 hours in mozzarella cheese brine, Table 19.
[12] abbreviates: after 4 hours in blue cheese brine.

On to `CCCCCCCC(=O)O` [500 ppm octanoic acid, octanoic acid], for which the Coliform count in assay [1] (setting [6]) was 3.5 × 10^4 cfu/mL; in assay [1] (Table 19), 3.8 × 10^3 cfu/mL; in assay [3] (setting [7]), less than 10 cfu/mL; in assay [3] (setting [9]) it was less than 10 cfu/mL. Also, the “Yeast Cocktail count” value in assay [2] (setting [7]) and in assay [2] (setting [8]) was less than 10 cfu/mL throughout. Further, the “White Yeast count” value with White Yeast (setting [9]), in the assay on White Yeast (setting [10]) and in the assay on White Yeast (setting [11]) was less than 10 cfu/mL in each case. Further, the “Black Mold count” value in the assay on black mold was less than 10 cfu/mL. Also, in assay [3] (setting [12]), the Coliforms count was less than 10 cfu/mL. Moreover, in assay [4], the ““Lactics” count” value is given as less than 1 cfu/mL. Further, the “Pink Yeast count” value in the assay on Pink Yeast (setting [9]) is reported as less than 10 cfu/mL; in the assay on Pink Yeast (setting [10]) it was less than 10 cfu/mL; in the assay with Pink Yeast (setting [11]) it was 20 cfu/mL. Besides, the “Yeast + Mold count” value in assay [5] (setting [7]) is listed as less than 10 cfu/mL; in assay [5] (setting [8]) it was 5.6 × 10^3 cfu/mL. Further, in assay [5], the “Green Mold + Yeast count” value is recorded as less than 10 cfu/mL.

`CCCCCCCC(=O)O` [125 ppm octanoic acid, octanoic acid]: the Coliform count in assay [1] (setting [6]) was ~3.0 × 10^6 (est) cfu/mL; in assay [1] (Table 19) it was 1.6 × 10^4 cfu/mL; in assay [3] (setting [7]) it was 10 cfu/mL; in assay [3] (setting [9]) it was less than 10 cfu/mL. Moreover, the figures for the “Yeast Cocktail count” value in assay [2] (setting [7]) and in assay [2] (setting [8]) were less than 10 cfu/mL and 6.0 × 10^3 cfu/mL, respectively. Besides, the “White Yeast count” value with White Yeast (setting [9]) is less than 10 cfu/mL; with White Yeast (setting [10]), less than 10 cfu/mL; in the assay on White Yeast (setting [11]), 60 cfu/mL. Besides, the “Black Mold count” value in the assay on black mold is listed as less than 10 cfu/mL. Moreover, the Coliforms count in assay [3] (setting [12]) is listed as less than 10 cfu/mL. For the same molecule, in assay [4], the ““Lactics” count” value was 2.0 × 10^3 cfu/mL. Also, the “Pink Yeast count” value in the assay with Pink Yeast (setting [9]), in the assay with Pink Yeast (setting [10]) and in the assay with Pink Yeast (setting [11]) was less than 10 cfu/mL throughout. Moreover, the “Yeast + Mold count” value in assay [5] (setting [7]) was 20 cfu/mL; in assay [5] (setting [8]) it was 4.1 × 10^5 cfu/mL. The “Green Mold + Yeast count” value in assay [5] is on record as less than 10 cfu/mL.

For the molecule `CCCCCCCC(=O)O` [250 ppm octanoic acid, octanoic acid], the Coliform count is 1.7 × 10^6 cfu/mL in assay [1] (setting [6]), 3.8 × 10^3 cfu/mL in assay [1] (Table 19), less than 10 cfu/mL in assay [3] (setting [7]) and less than 10 cfu/mL in assay [3] (setting [9]). Besides, the “Yeast Cocktail count” value in assay [2] (setting [7]) is less than 10 cfu/mL; in assay [2] (setting [8]), 200 cfu/mL. Besides, the “White Yeast count” value in the assay with White Yeast (setting [9]), in the assay with White Yeast (setting [10]) and with White Yeast (setting [11]) was less than 10 cfu/mL each time. For the same molecule, the “Black Mold count” value in the assay with black mold was less than 10 cfu/mL. In addition, in assay [3] (setting [12]), the Coliforms count was less than 10 cfu/mL. For the same molecule, the ““Lactics” count” value in assay [4] is less than 10 cfu/mL. For the same molecule, the “Pink Yeast count” value in the assay on Pink Yeast (setting [9]), with Pink Yeast (setting [10]) and in the assay on Pink Yeast (setting [11]) was less than 10 cfu/mL throughout. Also, the “Yeast + Mold count” value is reported as less than 10 cfu/mL in assay [5] (setting [7]) and 6.1 × 10^4 cfu/mL in assay [5] (setting [8]). For the same molecule, the “Green Mold + Yeast count” value in assay [5] was less than 10 cfu/mL.

These data come from patent US20110212235A1, “ANTIMICROBIAL SALT SOLUTIONS FOR CHEESE PROCESSING APPLICATIONS” (priority 2006, published 2011).
